Key:
TMD8 cells = assay: CellTiterGlo viability assay, SG3199 and MMAE combination, TMD8; format: cell-based; settings: 24 hours
Protocol: We tested a combination of the warheads alone used in CD19xADC (PBD SG3199) and CD79bxADC (monomethyl auristatin E (MMAE)). This was performed essentially as per Example 1, in TMD8 cells. Cells were seeded at a density of 50,000 cells/mL. […]
Cells were incubated for 24 hours and then viability was measured with CellTiterGlo assay.
For analysis of the results, data were first blank corrected (average of blank of the 3 replicates was subtracted from each data value). For GraphPad analysis, each replicate was normalized over the untreated cells (average of the 3 replicates). Data were analysed by GraphPad Prism to generate a dose response curve with Log drug concentration on X-axis and cell viability (%) on Y-axis. For CalcuSyn analysis, the average of the 3 replicates was corrected over the untreated cells.

Ramos xenograft = assay: In vivo efficacy, Ramos xenograft model; design: species or system mice
Protocol: A further in vivo study was conducted, similar to Example 2 but using a Ramos xenograft model.
Female severe combined immunodeficient mice (Fox Chase SCID®, CB17/Icr-Prkdc^scid/IcrIcoCrl, Charles River) were eight weeks old with a body weight (BW) range of 15.6 to 22.9 g on Day 1 of the study.
On the day of implant, 1×10^7 Ramos cells (0.1 mL suspension) were subcutaneously implanted into the right flank of each test animal and tumors were monitored as their volumes approached the target range. All vehicle and ADC doses were administered i.v. via tail vein injection once on Day 1 (qd×1). The dosing volume was 0.2 mL per 20 grams of body weight (10 mL/kg) and was scaled to the body weight of each individual animal.
Fourteen days after tumor implantation, designated as Day 1 of the study, the animals were sorted into groups (n=10) with individual tumor volumes of 108 to 144 mm^3 and group mean tumor volumes of 130 to 134 mm^3.
(§1) Tumors were measured using calipers twice per week, and each animal was euthanized when its tumor reached the endpoint volume of 1000 mm^3 or at the end of the study, whichever came first. The study ended on Day 62.

WSU-DLCL2 xenograft = assay: In vivo efficacy, WSU-DLCL2 xenograft model; design: species or system mice
Protocol: Female severe combined immunodeficient mice (Fox Chase SCID®, CB17/Icr-Prkdc^scid/IcrIcoCrl, Charles River) were nine weeks old with a body weight (BW) range of 17.3 to 24.1 g on Day 1 of the study.
On the day of implant, 1×10^7 WSU-DLCL2 cells (0.1 mL suspension) were subcutaneously implanted into the right flank of each test animal and tumors were monitored as their volumes approached the target range.
Ten days after tumor implantation, designated as Day 1 of the study, the animals were sorted into groups (n=10) with individual tumor volumes of 88 to 126 mm^3 and group mean tumor volumes of 109 to 111 mm^3.
All vehicle and ADC doses were administered i.v. via tail vein injection once on Day 1 (qd×1). The dosing volume was 0.2 mL per 20 grams of body weight (10 mL/kg) and was scaled to the body weight of each individual animal.
as §1
Tumors were measured in two dimensions using calipers, and volume was calculated using the formula
Tumor Volume (mm^3)=w^2×l/2, where w=width and l=length, in mm, of the tumor.
Tumor weight may be estimated with the assumption that 1 mg is equivalent to 1 mm^3 of tumor volume.

[1] = CD19xADC 0.3 mg/kg i.v. once on Day 1, n=10
[2] = CD19xADC 0.6 mg/kg i.v. once on Day 1, n=10
[3] = CD19xADC 0.25 mg/kg i.v. once on Day 1, n=10
[4] = CD19xADC 0.5 mg/kg i.v. once on Day 1, n=10

| Compound | Fa (fraction affected) (TMD8 cells; SG3199 0.06 pM alone (MMAE 0)) | Fa (fraction affected) (TMD8 cells; SG3199 0.23 pM alone (MMAE 0)) | Fa (fraction affected) (TMD8 cells; SG3199 0.90 pM alone (MMAE 0)) | Fa (fraction affected) (TMD8 cells; SG3199 3.6 pM alone (MMAE 0)) | Fa (fraction affected) (TMD8 cells; SG3199 14.4 pM alone (MMAE 0)) | Fa (fraction affected) (TMD8 cells; SG3199 57.5 pM alone (MMAE 0)) | Fa (fraction affected) (TMD8 cells; SG3199 230 pM alone (MMAE 0)) | CR (complete response) (Ramos xenograft; [1]) | PR (partial response) (Ramos xenograft; [1]) | TFS (tumour free survivor) (Ramos xenograft; [1]) | CR (complete response) (Ramos xenograft; [2]) | PR (partial response) (Ramos xenograft; [2]) | TFS (tumour free survivor) (Ramos xenograft; [2]) | CR (complete response) (WSU-DLCL2 xenograft; [3]) | PR (partial response) (WSU-DLCL2 xenograft; [3]) | TFS (tumour free survivor) (WSU-DLCL2 xenograft; [3]) | CR (complete response) (WSU-DLCL2 xenograft; [4]) | PR (partial response) (WSU-DLCL2 xenograft; [4]) | TFS (tumour free survivor) (WSU-DLCL2 xenograft; [4]) |
| --- | --- | --- | --- | --- | --- | --- | --- | --- | --- | --- | --- | --- | --- | --- | --- | --- | --- | --- | --- |
| COc1cc2c(cc1OCCCCCOc1cc3c(cc1OC)C(=O)N1C=C(C)C[C@H]1C=N3)N=C[C@@H]1CC(C)=CN1C2=O [SG3199, reference compound] | 0.12 | 0.16 | 0.15 | 0.15 | 0.19 | 0.23 | 0.46 | – | – | – | – | – | – | – | – | – | – | – | – |
| CD19xADC: anti-CD19 ADC; Loncastuximab tesirine is the CD19xADC used | – | – | – | – | – | – | – | 0 | 0 | 0 | 7 | 0 | 7 | 0 | 3 | 0 | 5 | 2 | 3 |

From US20250352658A1, “COMBINATION THERAPY USING ANTIBODY-DRUG CONJUGATES” (ADC THERAPEUTICS SA, priority 2021, published 2025)
